The results in this text go back to patent US8431708B2, “Fluorescent carbazole compounds for cancer diagnosis” (Academia Sinica, priority 2009, dated 2013).

Each structure is given as a SMILES string.

This experiment has as its system MRC-5 human lung normal fibroblast cells. Description: Fluorescence intensity as a function of incubation time in normal cells. The experiment is classed as cell-based. The following applies: MRC-5 cells. The procedure: The fluorescence intensity of 3,6-bis(1-methyl-4-vinylpyridinium)carbazole diiode (BMVC) described in Kang et al., J. Chin. Chem. Soc., 2005, 52, 1069-1072 and Compound 3 were measured in CL1-0 lung cancer cells and MRC-5 human lung normal fibroblast cells as a function of incubation time.

As to `C[n+]1ccc(C=Cc2ccc3[nH]c4ccc(C=Cc5cc[n+](C)cc5)cc4c3c2)cc1.[I-].[I-]` [BMVC, 3,6-bis(1-methyl-4-vinylpyridinium)carbazole diiode], the “fluorescence in normal cells” value was “weak fluorescence in normal cells”.
